According to PubChem BioAssay (NCI):
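Results reflect a 48-hour exposure of cells in 96-well plates to compound at five concentrations. GI50 = concentration required for 50% inhibition of growth. Definition used: TGI = concentration required for complete inhibition of growth.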

Assays:
Test in all cases: inhibition of tumour cell growth, NCI panel, 48 h
[1] = test system: 786-0 renal
[2] = test system: A498 renal
[3] = test system: A549 NSCLC
[4] = test system: ACHN renal
[5] = test system: BT-549 breast
[6] = test system: CCRF-CEM leukemia
[7] = test system: COLO 205 colon
[8] = test system: DU-145 prostate
[9] = test system: EKVX NSCLC
[10] = test system: HCC-2998 colon
[11] = test system: HCT-116 colon
[12] = test system: HCT-15 colon
[13] = test system: HL-60(TB) leukemia
[14] = test system: HOP-62 NSCLC
[15] = test system: HOP-92 NSCLC
[16] = test system: HS 578T breast
[17] = test system: HT29 colon
[18] = test system: IGROV1 ovarian
[19] = test system: K-562 leukemia
[20] = test system: KM12 colon
[21] = test system: LOX IMVI melanoma
[22] = test system: M14 melanoma
[23] = test system: MALME-3M melanoma
[24] = test system: MCF7 breast
[25] = test system: MDA-MB-231 breast
[26] = test system: MDA-MB-435
[27] = test system: NCI-H226 lung
[28] = test system: NCI-H23 lung
[29] = test system: NCI-H460 lung
[30] = test system: NCI-H522 lung
[31] = test system: NCI/ADR-RES ovarian
[32] = test system: OVCAR-3 ovarian
[33] = test system: OVCAR-4 ovarian
[34] = test system: OVCAR-5 ovarian
[35] = test system: OVCAR-8 ovarian
[36] = test system: PC-3 prostate
[37] = test system: RPMI-8226 leukemia
[38] = test system: RXF 393 renal
[39] = test system: SF-268 CNS
[40] = test system: SF-295 CNS
[41] = test system: SF-539 CNS
[42] = test system: SK-MEL-2 melanoma
[43] = test system: SK-MEL-28 melanoma
[44] = test system: SK-MEL-5 melanoma
[45] = test system: SK-OV-3 ovarian
[46] = test system: SN12C renal
[47] = test system: SNB-19 CNS
[48] = test system: SNB-75 CNS
[49] = test system: SW-620 colon
[50] = test system: U251 CNS
[51] = test system: UACC-257 melanoma
[52] = test system: UACC-62 melanoma
[53] = test system: UO-31 renal

Cc1ccc(-c2csc(NC(=O)N3CCN(c4cc5c(cc4F)c(=O)c(C(=O)O)cn5C4CC4)CC3)n2)cc1 was tested, and the GI50 [1] was 471 nM, the TGI [1] was 37500 nM and the GI50 [2] was 572 nM. It also gave a TGI [2] of 9160 nM, a GI50 [3] of 365 nM and a TGI [3] of over 100000 nM. It also gave a GI50 [4] of 307 nM, a TGI [4] of 4220 nM and a GI50 [5] of 345 nM. It also gave a TGI [5] of 2650 nM, a GI50 [6] of 451 nM and a TGI [6] of over 100000 nM. The GI50 [7] was 1920 nM, the TGI [7] was 6000 nM and the GI50 [8] was 428 nM. The TGI [8] was over 100000 nM, the GI50 [9] was 1490 nM and the TGI [9] was over 100000 nM. It also gave a GI50 [10] of 699 nM, a TGI [10] of over 100000 nM and a GI50 [11] of 335 nM. It also gave a TGI [11] of over 100000 nM, a GI50 [12] of 417 nM and a TGI [12] of over 100000 nM. For the same molecule, the GI50 [13] was 796 nM, the TGI [13] was 4510 nM and the GI50 [14] was 484 nM. The TGI [14] was over 100000 nM, the GI50 [15] was 431 nM and the TGI [15] was 3910 nM. It also gave a GI50 [16] of 666 nM, a TGI [16] of over 100000 nM and a GI50 [17] of 307 nM. For the same molecule, the TGI [17] was over 100000 nM, the GI50 [18] was 482 nM and the TGI [18] was over 100000 nM. It also gave a GI50 [19] of 881 nM, a TGI [19] of over 100000 nM and a GI50 [20] of 458 nM. The TGI [20] was over 100000 nM, the GI50 [21] was 362 nM and the TGI [21] was over 100000 nM. The GI50 [22] was 1200 nM, the TGI [22] was over 100000 nM and the GI50 [23] was 1100 nM. The TGI [23] was 5670 nM, the GI50 [24] was 490 nM and the TGI [24] was over 100000 nM. For the same molecule, the GI50 [25] was 1780 nM, the TGI [25] was 19400 nM and the GI50 [26] was 2060 nM. The TGI [26] was over 100000 nM, the GI50 [27] was 1440 nM and the TGI [27] was 8850 nM. For the same molecule, the GI50 [28] was 391 nM, the TGI [28] was over 100000 nM and the GI50 [29] was 355 nM. The TGI [29] was over 100000 nM, the GI50 [30] was 291 nM and the TGI [30] was 2150 nM. For the same molecule, the GI50 [31] was 4650 nM, the TGI [31] was over 100000 nM and the GI50 [32] was 492 nM. The TGI [32] was 18700 nM, the GI50 [33] was 2640 nM and the TGI [33] was over 100000 nM. It also gave a GI50 [34] of 867 nM, a TGI [34] of over 100000 nM and a GI50 [35] of 421 nM. It also gave a TGI [35] of 7740 nM, a GI50 [36] of 454 nM and a TGI [36] of over 100000 nM. For the same molecule, the GI50 [37] was 378 nM, the TGI [37] was 1900 nM and the GI50 [38] was 602 nM. It also gave a TGI [38] of 55000 nM, a GI50 [39] of 371 nM and a TGI [39] of over 100000 nM. For the same molecule, the GI50 [40] was 762 nM, the TGI [40] was 28500 nM and the GI50 [41] was 418 nM. It also gave a TGI [41] of over 100000 nM, a GI50 [42] of 1370 nM and a TGI [42] of 4360 nM. It also gave a GI50 [43] of 494 nM, a TGI [43] of over 100000 nM and a GI50 [44] of 889 nM. The TGI [44] was 2510 nM, the GI50 [45] was 1350 nM and the TGI [45] was 6120 nM. For the same molecule, the GI50 [46] was 366 nM, the TGI [46] was over 100000 nM and the GI50 [47] was 398 nM. For the same molecule, the TGI [47] was over 100000 nM, the GI50 [48] was 289 nM and the TGI [48] was 9550 nM. For the same molecule, the GI50 [49] was 1900 nM, the TGI [49] was over 100000 nM and the GI50 [50] was 392 nM. It also gave a TGI [50] of 14800 nM, a GI50 [51] of 2000 nM and a TGI [51] of 6580 nM. It also gave a GI50 [52] of 630 nM, a TGI [52] of 6290 nM and a GI50 [53] of 360 nM. It also gave a TGI [53] of over 100000 nM.
